Laboratory results from ChEMBL document CHEMBL5143597, “Design and synthesis of novel spirocyclic carboxylic acids as potent and orally bioavailable DGAT1 inhibitors and their biological evaluation” (Bioorg Med Chem Lett, 2022).

Tests used:
[1] = molecular target: T1, Diacylglycerol O-acyltransferase 1 (Homo sapiens, UniProt O75907); assay: Inhibition of human DGAT1 in serum starved HEK293 cells assessed as inhibition of triglyceride synthesis incubated for 20 mins followed by 13C-addition of 13C-oleic acid pre-complexed with BSA for 120 mins by LC-MS-based mass spectrophotometric analysis; type: cell-based
T1 sequence (O75907 whole entry): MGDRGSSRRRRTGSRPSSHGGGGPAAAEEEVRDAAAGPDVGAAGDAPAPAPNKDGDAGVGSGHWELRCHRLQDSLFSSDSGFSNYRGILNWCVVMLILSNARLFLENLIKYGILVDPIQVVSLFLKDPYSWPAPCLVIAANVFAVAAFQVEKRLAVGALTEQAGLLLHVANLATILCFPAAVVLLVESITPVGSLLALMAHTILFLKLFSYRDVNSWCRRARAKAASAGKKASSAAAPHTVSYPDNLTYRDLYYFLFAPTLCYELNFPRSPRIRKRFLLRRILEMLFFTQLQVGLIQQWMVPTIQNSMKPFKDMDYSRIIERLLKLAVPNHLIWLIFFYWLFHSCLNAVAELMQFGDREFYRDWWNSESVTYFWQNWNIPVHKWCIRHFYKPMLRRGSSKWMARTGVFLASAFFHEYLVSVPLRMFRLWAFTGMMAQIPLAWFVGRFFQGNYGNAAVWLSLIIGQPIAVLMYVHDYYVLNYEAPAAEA

[2] = molecular target: 2-acylglycerol O-acyltransferase 2 (Homo sapiens) (UniProt Q3SYC2); assay: Inhibition of recombinant human MGAT2 expressed in Sf9 cell membrane assessed as inhibition of triglyceride synthesis at 10 uM for 1 hr by LC-MS-based mass spectrophotometric analysis
[3] = Inhibition of human […] in HepG2 cells assessed as inhibition of triglyceride synthesis at 1 uM incubated for 1 hrs followed by 13C-addition of 13C-oleic acid pre-complexed with fatty acid free BSA for 6 hrs by LC/MS/MS analysis; details: time 7.0 hrs
[4] = Inhibition of human […] in HepG2 cells assessed as inhibition of triglyceride synthesis at 100 nM incubated for 1 hrs followed by 13C-addition of 13C-oleic acid pre-complexed with fatty acid free BSA for 6 hrs by LC/MS/MS analysis; details: time 7.0 hrs
[5] = Inhibition of human […] in HepG2 cells assessed as inhibition of triglyceride synthesis at 300 nM incubated for 1 hrs followed by 13C-addition of 13C-oleic acid pre-complexed with fatty acid free BSA for 6 hrs by LC/MS/MS analysis; details: time 7.0 hrs
[6] = molecular target: T2, CYP1A2 (Homo sapiens, UniProt P05177); assay: Inhibition of recombinant human CYP1A2 at 25 uM by fluorescence plate reader analysis; type: ADME
T2 sequence (P05177 whole entry): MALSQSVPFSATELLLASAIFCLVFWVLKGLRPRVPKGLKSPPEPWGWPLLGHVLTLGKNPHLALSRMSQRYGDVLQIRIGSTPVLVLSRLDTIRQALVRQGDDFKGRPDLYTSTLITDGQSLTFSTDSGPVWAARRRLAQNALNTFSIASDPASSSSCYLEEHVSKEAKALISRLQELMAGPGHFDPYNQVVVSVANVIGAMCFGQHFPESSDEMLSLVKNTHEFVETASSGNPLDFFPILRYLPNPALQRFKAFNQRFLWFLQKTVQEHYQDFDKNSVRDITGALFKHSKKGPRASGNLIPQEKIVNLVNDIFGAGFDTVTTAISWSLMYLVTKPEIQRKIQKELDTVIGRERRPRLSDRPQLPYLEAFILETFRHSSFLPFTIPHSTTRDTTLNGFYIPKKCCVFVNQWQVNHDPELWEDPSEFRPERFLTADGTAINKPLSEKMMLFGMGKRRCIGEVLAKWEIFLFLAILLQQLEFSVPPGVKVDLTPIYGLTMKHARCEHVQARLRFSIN

[7] = molecular target: CYP3A4 (Homo sapiens, UniProt P08684); assay: Inhibition of recombinant human CYP3A4 at 25 uM by fluorescence plate reader analysis; type: ADME
[8] = molecular target: CYP2D6 (Homo sapiens, UniProt P10635); assay: Inhibition of recombinant human CYP2D6 at 25 uM by fluorescence plate reader analysis; type: ADME
[9] = Solubility of compound in PBS at pH 2 incubated for 4 hrs under shaking condition by UV absorbance based analysis; type: physicochemical
[10] = Solubility of compound in PBS at pH 4 incubated for 4 hrs under shaking condition by UV absorbance based analysis; type: physicochemical
[11] = Solubility of compound in PBS at pH 7.4 incubated for 4 hrs under shaking condition by UV absorbance based analysis; type: physicochemical
[12] = Solubility of compound in PBS at pH 9 incubated for 4 hrs under shaking condition by UV absorbance based analysis; type: physicochemical

Sequence of 2-acylglycerol O-acyltransferase 2 (Homo sapiens) (Q3SYC2 whole entry, looked up): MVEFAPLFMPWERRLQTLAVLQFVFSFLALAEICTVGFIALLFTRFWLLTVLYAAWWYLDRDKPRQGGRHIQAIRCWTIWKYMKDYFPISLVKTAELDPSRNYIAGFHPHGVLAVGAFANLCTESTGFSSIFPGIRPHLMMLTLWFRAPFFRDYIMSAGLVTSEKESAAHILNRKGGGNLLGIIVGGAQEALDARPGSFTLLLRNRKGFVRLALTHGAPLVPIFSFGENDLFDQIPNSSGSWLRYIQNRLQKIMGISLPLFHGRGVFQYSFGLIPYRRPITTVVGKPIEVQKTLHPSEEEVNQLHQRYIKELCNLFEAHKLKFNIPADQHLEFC
Sequence of CYP3A4 (P08684 whole entry): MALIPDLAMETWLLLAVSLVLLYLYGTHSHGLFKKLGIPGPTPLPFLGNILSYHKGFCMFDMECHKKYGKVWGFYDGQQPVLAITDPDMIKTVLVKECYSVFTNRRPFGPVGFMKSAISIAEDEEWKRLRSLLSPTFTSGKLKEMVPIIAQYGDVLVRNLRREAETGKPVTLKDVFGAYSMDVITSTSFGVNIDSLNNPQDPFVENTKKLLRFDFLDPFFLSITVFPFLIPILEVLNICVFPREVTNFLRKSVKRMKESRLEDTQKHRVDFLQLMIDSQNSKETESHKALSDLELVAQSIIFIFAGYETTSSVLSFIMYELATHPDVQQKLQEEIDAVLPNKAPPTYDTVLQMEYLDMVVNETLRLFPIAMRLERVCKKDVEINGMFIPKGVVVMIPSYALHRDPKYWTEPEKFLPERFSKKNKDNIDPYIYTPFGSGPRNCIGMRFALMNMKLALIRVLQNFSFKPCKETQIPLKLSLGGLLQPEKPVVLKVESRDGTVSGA
Sequence of CYP2D6 (P10635 whole entry): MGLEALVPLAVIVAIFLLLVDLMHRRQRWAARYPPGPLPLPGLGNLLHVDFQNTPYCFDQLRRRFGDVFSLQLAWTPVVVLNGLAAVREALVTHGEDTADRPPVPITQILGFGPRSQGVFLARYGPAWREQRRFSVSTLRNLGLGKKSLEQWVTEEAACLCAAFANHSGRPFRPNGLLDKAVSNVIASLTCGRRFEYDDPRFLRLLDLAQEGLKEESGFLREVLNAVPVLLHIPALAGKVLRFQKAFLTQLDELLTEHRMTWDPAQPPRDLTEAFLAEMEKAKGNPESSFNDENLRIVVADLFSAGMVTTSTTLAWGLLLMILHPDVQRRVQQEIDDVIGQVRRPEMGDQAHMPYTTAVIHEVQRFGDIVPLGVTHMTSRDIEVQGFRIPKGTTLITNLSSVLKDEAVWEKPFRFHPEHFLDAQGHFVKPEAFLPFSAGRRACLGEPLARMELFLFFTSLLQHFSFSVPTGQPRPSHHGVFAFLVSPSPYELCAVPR

inhibition [2] [%] | inhibition [3] [%] | inhibition [4] [%] | inhibition [5] [%] | Structure (SMILES) | further results
 |  |  |  | O=C(O)C[C@H]1CC[C@H](c2ccc(-c3ccc(Nc4ccc(C(F)(F)F)nc4)cn3)cc2)CC1 [PRADIGASTAT] | IC50 [1]: 66 nM
16 | 90 | 55 | 82 | O=C(O)CC1CCC2(CC1)CCC(c1ccc(NC(=O)c3nnc(Nc4ccc(F)c(F)c4)o3)cn1)CC2 (stereo unspecified) | 
 |  |  |  | O=C([O-])CC1CCC2(CC1)CCC(c1ccc(NC(=O)c3nnc(Nc4ccc(F)c(F)c4)o3)cn1)CC2.[Na+] (stereo unspecified) | inhibition at 25 µM [6]: 13%; inhibition at 25 µM [7]: 17%; inhibition at 25 µM [8]: 5%; solubility at 4 h [9]: < 6 µM; solubility at 4 h [10]: < 6 µM; solubility at 4 h [11]: < 6 µM; solubility at 4 h [12]: 9 µM
16 | 96 | 88 | 94 | O=C(Nc1ccc(C2CCC3(CC2)CC(C(=O)O)C3)cc1)c1nnc(Nc2ccc(F)c(F)c2)o1 (stereo unspecified) | 
